The text below walks through data of ChEMBL document CHEMBL1201862, “PubChem BioAssay data set” (2004).

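Results reflect a 48-hour exposure of cells in 96-well plates to compound at five concentrations. Here, GI50 denotes the concentration required for 50% inhibition of growth.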 Activity calls are given as the source filed them. Cut-off read from the data, not from the text of the source: active = GI50 up to about 1.1 µM and inactive = higher.

Among the test systems are HL-60; MOLT-4; OVCAR-3; UACC-62; CCRF-CEM; HOP-62; UACC-257; OVCAR-4; SF-295; 786-0; SR; TK-10; HT-29; SF-539; U-251; HCT-116; HOP-92; UO-31; A549; OVCAR-8.
Holding throughout (assay): NCI-60 cell line screen, 48 h

In the case of `NS(=O)(=O)c1ccc(NC(=O)Nc2cccc3ccccc23)cc1`, the GI50 was > 100 µM (inactive) with HL-60; > 100 µM (inactive) in the assay with MOLT-4; 46.9 µM (inactive) in the assay on OVCAR-3; 23.6 µM (inactive) with UACC-62; > 100 µM (inactive) in the assay with CCRF-CEM; 34.4 µM (inactive) in the assay with HOP-62. The GI50 was > 100 µM (inactive) with UACC-257; 42.2 µM (inactive) in the assay with OVCAR-4; 35.6 µM (inactive) with SF-295; 19 µM (inactive) with 786-0; 72.3 µM (inactive) in the assay with SR; 31 µM (inactive) with TK-10. Moreover, the GI50 in the assay with HT-29 is 60.3 µM (inactive); with SF-539, 23.8 µM (inactive); with U-251, 18.3 µM (inactive); with HCT-116, 39.8 µM (inactive); in the assay on HOP-92, 35.6 µM (inactive); with UO-31 it was 16.1 µM (inactive). Moreover, the GI50 in the assay with A549 was 40.7 µM (inactive); with OVCAR-8, 20.9 µM (inactive).

`N[C@H]1CCCC[C@@H]1N1C(=O)c2ccccc2C1(O)c1ccc(Cl)cc1` (stereo not given in full): the GI50 with HL-60 is 2.41 µM (inactive); in the assay on MOLT-4 it was 5.79 µM (inactive); with OVCAR-3, 8.73 µM (inactive); in the assay on UACC-62 it was 13 µM (inactive); in the assay on CCRF-CEM, 2.94 µM (inactive); in the assay on HOP-62, 14.5 µM (inactive). The GI50 in the assay with UACC-257 is 4.15 µM (inactive); with OVCAR-4 it was 11.2 µM (inactive); in the assay with SF-295 it was 16 µM (inactive); in the assay with 786-0, 12.6 µM (inactive); in the assay with SR, 13.9 µM (inactive); in the assay with TK-10, 12.9 µM (inactive). The GI50 with HT-29 is 4.75 µM (inactive); with SF-539, 10.4 µM (inactive); with U-251 it was 12.6 µM (inactive); with HCT-116, 9.79 µM (inactive); in the assay on HOP-92, 10.3 µM (inactive); with UO-31, 11.6 µM (inactive). The GI50 is 12.2 µM (inactive) in the assay with A549 and 15.4 µM (inactive) in the assay on OVCAR-8.

`CN(Cc1ccccc1)/C(=N\C#N)N(Cc1ccccc1)Cc1ccccc1`: the GI50 is 30.1 µM (inactive) in the assay on HL-60; 10.5 µM (inactive) in the assay on MOLT-4; 18 µM (inactive) with OVCAR-3; 20.4 µM (inactive) in the assay on UACC-62; 37.2 µM (inactive) with CCRF-CEM; 27.7 µM (inactive) in the assay on HOP-62. For the same molecule, the GI50 in the assay with UACC-257 was 21.6 µM (inactive); in the assay on OVCAR-4, 24.4 µM (inactive); in the assay with SF-295, 14.1 µM (inactive); with 786-0, 31.5 µM (inactive); with SR, 0.0383 µM (active); in the assay on TK-10, 33 µM (inactive). Moreover, the GI50 is 14.7 µM (inactive) with HT-29; 19.8 µM (inactive) in the assay on SF-539; 28.2 µM (inactive) in the assay on U-251; 18.7 µM (inactive) in the assay with HCT-116; 16.9 µM (inactive) in the assay on HOP-92; 26.5 µM (inactive) with UO-31. For the same molecule, the GI50 is 31 µM (inactive) with A549 and 29.9 µM (inactive) in the assay with OVCAR-8.

For the molecule `COc1ccc(C(CC(C)=O)c2c(O)c3ccccc3oc2=O)cc1OC` (stereo not given), the GI50 with HL-60, with MOLT-4, in the assay on OVCAR-3, in the assay on UACC-62, in the assay on CCRF-CEM and in the assay on HOP-62 was > 100 µM (inactive) each time. Also, the GI50 in the assay on UACC-257, in the assay with OVCAR-4, in the assay on SF-295, in the assay with 786-0, with SR and in the assay on TK-10 was > 100 µM (inactive) each time. In addition, the GI50 with HT-29, in the assay with SF-539, with U-251, with HCT-116, in the assay on HOP-92 and with UO-31 was > 100 µM (inactive) in each case. Also, the GI50 in the assay on A549 and with OVCAR-8 was > 100 µM (inactive) in each case.

Turning to `O=c1c(Br)cc2nc3ccccc3sc-2c1Br`, the GI50 was 16.3 µM (inactive) in the assay with HL-60; 22.2 µM (inactive) in the assay on MOLT-4; 16.9 µM (inactive) in the assay with OVCAR-3; 25 µM (inactive) in the assay on UACC-62; 23.8 µM (inactive) in the assay on CCRF-CEM; > 100 µM (inactive) with HOP-62. Besides, the GI50 is 31.3 µM (inactive) with UACC-257; 24 µM (inactive) in the assay on OVCAR-4; > 100 µM (inactive) with SF-295; 15.4 µM (inactive) in the assay with 786-0; 53.5 µM (inactive) in the assay on SR; > 100 µM (inactive) with TK-10. For the same molecule, the GI50 with HT-29 was > 100 µM (inactive); in the assay on SF-539, > 83.9 µM (inactive); in the assay on U-251 it was > 80.7 µM (inactive); in the assay with HCT-116, > 100 µM (inactive); with HOP-92, 50 µM (inactive); with UO-31 it was > 100 µM (inactive). The values for the GI50 with A549 and in the assay on OVCAR-8 were > 94.8 µM (inactive) and 19.5 µM (inactive), respectively.

Consider `CCC(O)CCCCCCCCCCCCCCC(=O)O` (stereo not given), for which the GI50 was 24.8 µM (inactive) in the assay with HL-60; 44.3 µM (inactive) in the assay on MOLT-4; > 100 µM (inactive) in the assay with OVCAR-3; > 100 µM (inactive) with UACC-62; > 100 µM (inactive) in the assay with CCRF-CEM; > 100 µM (inactive) in the assay on HOP-62. Moreover, the GI50 in the assay with UACC-257 was > 100 µM (inactive); in the assay with OVCAR-4, > 100 µM (inactive); in the assay on SF-295, > 100 µM (inactive); in the assay with 786-0 it was 84.9 µM (inactive); with SR, 49.9 µM (inactive); with TK-10, > 100 µM (inactive). Besides, the GI50 is 40.8 µM (inactive) in the assay on HT-29; > 100 µM (inactive) with SF-539; > 100 µM (inactive) in the assay with U-251; > 100 µM (inactive) in the assay on HCT-116; > 100 µM (inactive) in the assay on HOP-92; > 100 µM (inactive) with UO-31. For the same molecule, the GI50 with A549 and with OVCAR-8 was > 100 µM (inactive) each time.

As for `Cc1ccc(S(=O)(=O)NNC(=O)Nc2ccc([N+](=O)[O-])cc2)cc1`, the GI50 in the assay on HL-60 was 36.1 µM (inactive); in the assay on MOLT-4, 46.3 µM (inactive); with OVCAR-3 it was 19.6 µM (inactive); in the assay on UACC-62 it was 22.8 µM (inactive); in the assay on CCRF-CEM it was 45.3 µM (inactive); in the assay with HOP-62 it was 27.9 µM (inactive). In addition, the GI50 in the assay with UACC-257 was 46.5 µM (inactive); in the assay with OVCAR-4 it was 26.2 µM (inactive); in the assay on SF-295 it was 36.6 µM (inactive); in the assay on 786-0, 24.9 µM (inactive); in the assay on SR it was 42.6 µM (inactive); in the assay with TK-10, 67.3 µM (inactive). The GI50 was 43.5 µM (inactive) with HT-29; 50.7 µM (inactive) in the assay with SF-539; 31 µM (inactive) with U-251; 26.9 µM (inactive) in the assay on HCT-116; 43.8 µM (inactive) with HOP-92; 47 µM (inactive) in the assay with UO-31. The figures for the GI50 in the assay with A549 and in the assay on OVCAR-8 were 35.6 µM (inactive) and 17.4 µM (inactive), respectively.
